From ChEMBL document CHEMBL3045195, “Comparison of the activity of non-steroidal ecdysone agonists between dipteran and lepidopteran insects, using cell-based EcR reporter assays” (Pest Manag Sci, 2010)
Activity calls are given as the source filed them. No cut-off for these calls is given here.

Assays:
[1] = molecular target: T1, Ecdysone receptor (Drosophila melanogaster, UniProt P20153+P34021); test: Agonist activity at ecdysone receptor in Drosophila melanogaster Kc cells after 24 hr by luciferase reporter gene assay
T1 sequence (P34021 whole entry): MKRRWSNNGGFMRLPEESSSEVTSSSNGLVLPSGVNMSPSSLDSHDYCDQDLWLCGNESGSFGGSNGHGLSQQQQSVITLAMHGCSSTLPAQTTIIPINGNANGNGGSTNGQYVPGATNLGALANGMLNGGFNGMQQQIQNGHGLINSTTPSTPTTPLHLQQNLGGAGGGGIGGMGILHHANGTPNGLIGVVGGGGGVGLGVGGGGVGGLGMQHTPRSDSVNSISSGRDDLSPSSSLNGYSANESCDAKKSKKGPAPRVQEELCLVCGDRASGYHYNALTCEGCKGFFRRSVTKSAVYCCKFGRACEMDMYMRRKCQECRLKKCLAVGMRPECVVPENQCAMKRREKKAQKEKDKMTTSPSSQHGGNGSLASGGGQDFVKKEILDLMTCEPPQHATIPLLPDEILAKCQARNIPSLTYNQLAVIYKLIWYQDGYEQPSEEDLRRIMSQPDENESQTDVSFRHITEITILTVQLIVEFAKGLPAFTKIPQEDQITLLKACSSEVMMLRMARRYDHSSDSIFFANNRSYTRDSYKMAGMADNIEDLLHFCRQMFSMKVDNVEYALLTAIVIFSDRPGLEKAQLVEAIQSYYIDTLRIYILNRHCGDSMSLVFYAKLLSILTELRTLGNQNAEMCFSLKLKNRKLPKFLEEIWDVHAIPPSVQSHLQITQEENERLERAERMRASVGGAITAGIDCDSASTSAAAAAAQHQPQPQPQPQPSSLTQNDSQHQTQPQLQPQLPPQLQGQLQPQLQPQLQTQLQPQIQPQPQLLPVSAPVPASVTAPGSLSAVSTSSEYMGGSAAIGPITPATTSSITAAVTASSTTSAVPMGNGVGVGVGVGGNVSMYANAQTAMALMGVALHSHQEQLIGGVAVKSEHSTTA
T1 sequence (P20153 whole entry): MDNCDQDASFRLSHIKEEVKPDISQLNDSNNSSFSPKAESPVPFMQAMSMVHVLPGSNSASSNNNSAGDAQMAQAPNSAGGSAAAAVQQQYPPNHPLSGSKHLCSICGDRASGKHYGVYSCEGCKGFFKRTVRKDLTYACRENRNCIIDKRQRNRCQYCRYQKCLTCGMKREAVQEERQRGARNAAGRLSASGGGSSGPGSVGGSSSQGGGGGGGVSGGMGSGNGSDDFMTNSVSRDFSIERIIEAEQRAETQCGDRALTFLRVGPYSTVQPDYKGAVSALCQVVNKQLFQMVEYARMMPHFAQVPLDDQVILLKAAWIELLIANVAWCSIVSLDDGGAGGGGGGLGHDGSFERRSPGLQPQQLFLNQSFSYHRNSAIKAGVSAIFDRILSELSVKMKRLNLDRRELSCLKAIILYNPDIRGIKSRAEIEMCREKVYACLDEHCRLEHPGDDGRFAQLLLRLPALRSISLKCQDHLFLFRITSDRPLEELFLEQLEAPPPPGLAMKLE

[2] = molecular target: T2, Ecdysone receptor (Drosophila melanogaster) (UniProt P34021+P20153); test: Agonist activity at ecdysone receptor in Drosophila melanogaster S2 cells at 100 uM after 24 hr by luciferase reporter gene assay relative to 20-hydroxyecdysone; format: cell-based
[3] = molecular target: T1, Ecdysone receptor; test: (§1) Agonist activity at ecdysone receptor in Drosophila melanogaster S2 cells after 24 hr by luciferase reporter gene assay; format: cell-based
[4] = Cytotoxicity against Drosophila melanogaster S2 cells at 10 to 100 uM after 24 hr by CellTiter assay; format: cell-based; conditions: s2, 24 h
[5] = molecular target: T1, Ecdysone receptor; test: Agonist activity at ecdysone receptor in Drosophila melanogaster B2 cells assessed as reduction in cell density
[6] = molecular target: T3, Ecdysone receptor (Bombyx mori, UniProt P49881); test: (§2) Agonist activity at ecdysone receptor in Bombyx mori Bm5 cells after 24 hr by luciferase reporter gene assay; format: cell-based
T3 sequence (P49881 whole entry): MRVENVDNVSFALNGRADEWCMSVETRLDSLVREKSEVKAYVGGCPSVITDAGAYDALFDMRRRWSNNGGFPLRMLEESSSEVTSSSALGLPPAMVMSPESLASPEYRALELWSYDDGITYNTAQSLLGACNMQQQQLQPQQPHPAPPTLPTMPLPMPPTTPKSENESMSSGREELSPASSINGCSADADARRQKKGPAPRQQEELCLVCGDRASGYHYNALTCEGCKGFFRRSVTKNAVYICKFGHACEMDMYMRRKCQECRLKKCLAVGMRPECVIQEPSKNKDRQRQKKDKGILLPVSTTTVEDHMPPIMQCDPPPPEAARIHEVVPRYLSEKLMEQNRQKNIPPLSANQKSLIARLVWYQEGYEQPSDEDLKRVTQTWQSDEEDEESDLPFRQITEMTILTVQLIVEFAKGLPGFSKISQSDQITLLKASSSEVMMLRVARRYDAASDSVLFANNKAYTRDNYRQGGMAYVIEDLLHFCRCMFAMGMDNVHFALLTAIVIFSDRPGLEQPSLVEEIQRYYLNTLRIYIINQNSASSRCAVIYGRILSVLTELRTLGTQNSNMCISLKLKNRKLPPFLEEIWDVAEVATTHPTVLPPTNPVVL

[7] = molecular target: T2, Ecdysone receptor (Drosophila melanogaster); test: Agonist activity at ecdysone receptor in Drosophila melanogaster S2 cells at 10 uM after 24 hr by luciferase reporter gene assay relative to 20-hydroxyecdysone; format: cell-based
[8] = molecular target: T2, Ecdysone receptor (Drosophila melanogaster); test: as §1; format: cell-based
[9] = molecular target: T4, Ecdysone receptor (Bombyx mori) (UniProt P49881); test: as §2; format: cell-based
T4 sequence (whole entry): T3 sequence (P49881 whole entry)

[10] = molecular target: Ecdysone receptor (Aedes aegypti) (UniProt P49880+Q9GSG8); test: Agonist activity at Aedes aegypti ecdysone receptor expressed in mammalian cells by reporter gene assay relative to control; format: cell-based
[11] = molecular target: T5, Ecdysone receptor (Aedes aegypti, UniProt P49880+Q9GSG8); test: Agonist activity at Aedes aegypti ecdysone receptor expressed in mammalian cells by reporter gene assay; format: cell-based
T5 sequence (P49880 whole entry): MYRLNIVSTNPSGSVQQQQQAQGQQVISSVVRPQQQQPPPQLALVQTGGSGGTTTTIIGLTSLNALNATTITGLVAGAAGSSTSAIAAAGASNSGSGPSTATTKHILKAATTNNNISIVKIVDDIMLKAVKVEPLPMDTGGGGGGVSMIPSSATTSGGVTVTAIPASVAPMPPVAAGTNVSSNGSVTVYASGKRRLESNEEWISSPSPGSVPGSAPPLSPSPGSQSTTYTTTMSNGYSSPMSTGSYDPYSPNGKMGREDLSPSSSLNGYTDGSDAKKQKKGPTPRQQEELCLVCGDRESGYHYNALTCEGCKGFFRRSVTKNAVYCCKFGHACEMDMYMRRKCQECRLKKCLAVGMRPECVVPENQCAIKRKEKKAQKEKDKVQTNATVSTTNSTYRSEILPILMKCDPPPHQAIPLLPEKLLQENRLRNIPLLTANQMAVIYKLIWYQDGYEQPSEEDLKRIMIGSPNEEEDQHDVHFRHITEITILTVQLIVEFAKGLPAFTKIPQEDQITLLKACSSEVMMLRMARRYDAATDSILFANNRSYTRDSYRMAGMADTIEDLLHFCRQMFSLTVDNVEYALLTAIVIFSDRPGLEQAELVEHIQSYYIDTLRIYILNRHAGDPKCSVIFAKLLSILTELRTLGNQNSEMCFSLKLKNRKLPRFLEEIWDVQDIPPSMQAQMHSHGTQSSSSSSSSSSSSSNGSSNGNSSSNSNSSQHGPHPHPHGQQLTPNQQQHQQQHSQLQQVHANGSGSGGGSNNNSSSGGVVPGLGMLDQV
T5 sequence (Q9GSG8 whole entry): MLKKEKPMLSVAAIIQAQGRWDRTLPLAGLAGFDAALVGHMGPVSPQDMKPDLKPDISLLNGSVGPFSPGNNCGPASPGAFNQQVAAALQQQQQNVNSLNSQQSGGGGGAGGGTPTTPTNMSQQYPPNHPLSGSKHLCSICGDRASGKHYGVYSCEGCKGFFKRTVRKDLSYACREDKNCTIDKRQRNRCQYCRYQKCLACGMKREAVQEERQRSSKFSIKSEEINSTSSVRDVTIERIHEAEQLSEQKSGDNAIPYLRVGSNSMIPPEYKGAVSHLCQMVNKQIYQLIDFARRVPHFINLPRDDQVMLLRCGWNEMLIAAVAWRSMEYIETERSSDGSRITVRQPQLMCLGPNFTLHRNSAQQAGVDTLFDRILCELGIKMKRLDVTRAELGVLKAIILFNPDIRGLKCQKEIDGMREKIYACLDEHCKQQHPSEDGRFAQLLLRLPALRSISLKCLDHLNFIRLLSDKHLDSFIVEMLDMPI

Structure (SMILES) | Efficacy [2] | EC50 [3] | EC50 [5] | EC50 [6] | other results
CC(C)(C)N(NC(=O)c1ccc(-c2ccccc2)cc1)C(=O)c1ccccc1Cl |  |  |  |  | EC50 [1]: > 100 µM
CC(C)(C)N(NC(=O)c1ccccc1)C(=O)c1ccccc1 [RH-5849] | 62% | 37.2 µM | 1.82 µM | 0.427 µM | Activity [4]: Non-toxic
CC(C)(C)N(NC(=O)c1ccccc1)C(=O)c1ccccc1I | 52% | 91.2 µM | 1.2 µM | 0.105 µM | 
CC(C)(C)N(NC(=O)c1ccccc1Cl)C(=O)c1ccccc1Cl | 48% | 105 µM | 2.57 µM | 0.331 µM | 
CC(C)(C)N(NC(=O)c1ccccc1)C(=O)c1ccccc1F | 62% | 72.4 µM | 6.17 µM | 0.309 µM | 
COc1ccccc1C(=O)N(NC(=O)c1ccccc1)C(C)(C)C | 44% | 120 µM | 3.8 µM | 0.525 µM | 
CCCc1ccc(C(=O)NN(C(=O)c2ccccc2Cl)C(C)(C)C)cc1 |  | 9.77 µM |  | 0.00912 µM | Efficacy [7]: 52%
CCc1ccc(C(=O)NC2(C(=O)c3cc(C)cc(C)c3)CCCCC2)cc1 |  | > 10 µM |  |  | Efficacy [7]: 4%
CCc1ccc(C(=O)NN(C(=O)c2ccccc2Cl)C(C)(C)C)cc1 | 71% | 15.5 µM | 0.219 µM | 0.00575 µM | 
CCc1ccc(C(=O)NN(C(=O)c2cc(C)cc(C)c2)C(C)(C)C)cc1 [TEBUFENOZIDE] |  | 6.61 µM | 0.525 µM | 0.00123 µM | Efficacy [7]: 52%; Activity [4]: Non-toxic
CC(C)(C)N(NC(=O)c1ccccc1)C(=O)c1ccccc1Cl |  | 8.51 µM |  | 0.0759 µM | Efficacy [7]: 57%
CC1CCc2ccccc2N1C(=O)c1ccc(Cl)cc1 (stereo not drawn) |  |  |  |  | pEC50 [8]: inactive; pEC50 [9]: inactive
CC1CC(Nc2ccc(F)cc2)c2cc(F)ccc2N1C(=O)c1ccc(Cl)cc1 (stereo not drawn) | 12% | > 100 µM |  |  | Efficacy [10]: 70%; EC50 [11]: 0.646 µM
Cc1ccc(C(=O)NN(C(=O)c2ccccc2Cl)C(C)(C)C)cc1 | 79% | 3.24 µM | 0.219 µM | 0.0186 µM | 
CC(C)(C)N(NC(=O)c1ccccc1)C(=O)c1ccccc1Br | 55% | 81.3 µM | 0.794 µM | 0.17 µM | 
Cc1ccccc1C(=O)N(NC(=O)c1ccccc1)C(C)(C)C | 45% | 120 µM | 3.8 µM | 0.224 µM | 
Cc1ccc(C(=O)NN(C(=O)c2cc(C)cc(C)c2)C(C)(C)C)cc1 |  | 11.2 µM |  | 0.012 µM | Efficacy [7]: 46%
Cc1ccc(NC2CCN(C(=O)c3ccc(Cl)cc3)CC2)cc1 |  |  |  |  | pEC50 [8]: inactive; pEC50 [9]: inactive
CC(C)(C)N(NC(=O)c1ccc(Cl)cc1)C(=O)c1ccccc1 [HALOFENOZIDE] | 57% | 7.76 µM |  | 0.0871 µM | Activity [4]: Non-toxic
Cc1ccc(NC2CCN(C(=O)c3ccc(Cl)cc3)c3ccccc32)cc1 (stereo not drawn) |  |  |  |  | pEC50 [8]: inactive; pEC50 [9]: inactive
Cc1ccc(NC2CC(C)N(C(=O)c3ccc(C(C)(C)C)cc3)c3ccc(C)cc32)cc1 (stereo not drawn) |  |  |  |  | pEC50 [8]: inactive; pEC50 [9]: inactive
Cc1ccc(N(C(=O)c2ccc(Cl)cc2)C2CC(C)N(C(=O)c3ccc(Cl)cc3)c3ccc(C)cc32)cc1 (stereo not drawn) |  |  |  |  | pEC50 [8]: inactive; pEC50 [9]: inactive
Cc1cc(C)cc(C(=O)NN(C(=O)CCCC(C)C)C(C)(C)C)c1 |  |  |  | > 100 µM | pEC50 [8]: inactive
CC(C)(C)N(NC(=O)c1ccccc1)C(=O)c1ccccc1[N+](=O)[O-] | 86% | 15.5 µM | 1.1 µM | 0.224 µM | 
Cc1cc(C)cc(C(=O)NN(C(=O)CCC(C)C)C(C)(C)C)c1 |  |  |  | 14.5 µM | pEC50 [8]: inactive
CC(C)(C)N(NC(=O)c1ccccc1)C(=O)c1ccccc1C(F)(F)F | 63% | 33.9 µM | 3.63 µM | 0.631 µM | 
Cc1cc(C)cc(C(=O)N(NC(=O)c2ccc(Cl)cc2)C(C)(C)C)c1 |  | 16.6 µM |  | 0.0191 µM | Efficacy [7]: 42%
CN(NC(=O)c1ccccc1)C(=O)c1ccccc1 |  |  |  | > 100 µM | pEC50 [8]: inactive
CC(C)(C)N(NC(=O)c1cccc(Cl)c1)C(=O)c1ccccc1Cl | 80% | 16.6 µM | 1.2 µM | 0.155 µM | 
